Source: PMC8807399, “Synthesis, Characterization, and in vivo Evaluation of a Novel Potent Autotaxin-Inhibitor” (Frontiers in Pharmacology, 2022)
Converted amounts (≈) assume the structure as drawn.

How the values were obtained:
HT-solubility assay = type: physicochemical; details: aqueous buffer, thermodynamic from solid; phosphate buffer pH 6.5
Protocol: This assay was performed on a TECAN station starting from 10 mM DMSO stock solutions of the test compounds. Two aliquots of the test compound were dried and dissolved in phosphate buffer at pH 6.5. Sonication supports optimal re-solubilization. The solutions were then filtered and diluted (3 different dilution levels for each compound) followed by quantification of the dissolved material with Rapid-Fire MS. Quantification was performed for each test compound with a 6-point calibration curve prepared with the same DMSO starting solution.

EAG model rats = experiment: Experimental autoimmune glaucoma (EAG) model; type: in vivo, rat; details: ONA + ATX-i group; for IOP: 20 mg/kg food admix
Protocol: Calculations of the daily doses were based on average food intake of rats used in the studies. […] After mixing, ethanol was removed in vacuo until dryness.
The regular chow diet for the treatment groups was replaced with the same chow diet containing the treatment substance.
For the EAG model, preparation and immunization of the optic nerve antigen (ONA = bovine optic nerve homogenate) was carried out as previously described ([Laspas et al., 2011]; [Joachim et al., 2013]). Rats received an intraperitoneal injection with 8 mg/ml ONA. The antigen was mixed with incomplete Freund’s adjuvant (500 µl) plus 3 µg pertussis toxin (both Sigma Aldrich, St. Louis, MO, United States). The animals of the control group were injected with NaCl in Freund’s adjuvant and pertussis toxin. Rats were sacrificed 28 days after immunization.
Aqueous humor and serum were collected at the end of the EAG study. IgG levels were measured in serum and aqueous humor samples from the EAG study (both: 6-7 samples/group) using a sandwich enzyme-linked immunosorbent assay (ELISA) kit (eBioscience, Frankfurt, Germany) according to the manufacturer’s instructions. In brief, samples of aqueous humor from both groups were prediluted 1,000- or 2,000-fold in assay buffer, serum samples were diluted 100,000- or 200,000-fold in assay buffer. 75 µl of assay buffer were inserted into each sample well. 25 µl of the prediluted sample were added to the appropriate wells. All samples were incubated, and the absorbance was read at 405 nm using a microplate reader (AESKU.Reader with Gen5 ELISA Software, AESKU.DIAGNOSTICS, Wendelsheim, Germany) ([Reinehr et al., 2018]; [Tsai et al., 2018]).
The IOP was measured in both eyes of each animal in the EAG study with a rebound tonometer (Tonolab; iCare, Oy, Finland) 1 week before as well as 1, 2, and 3 weeks after immunization (n = 5–6 animals/group). The tonometer was held horizontally in front of the animal’s eye ([Pease et al., 2006]). 10 measurements per eye were recorded. From these values, the mean value was calculated ([Reinehr et al., 2019a]).
After explantation, eyes and optic nerves were fixed in 4% paraformaldehyde for 60 min (eyes) or 120 min (optic nerves) and then treated with 30% sucrose overnight. Afterwards, the retinas and optic nerves were embedded in NEG-50 Tissue-Tek medium (Thermo Fisher, Waltham, MA, United States). Cryo-cross sections of the eyes (10 µm) or longitudinal sections of the optic nerves (4 µm) were cut on a microtome (Thermo Fisher), mounted on Histobond Superfrost^+ slides (Thermo Fisher) and fixed in ice cold acetone for 10 min.
Longitudinal optic nerve sections (EAG: 5-6 nerves/group, I/R 14 days: 6-7 nerves/group) were stained with H&E and luxol fast blue (LFB). Of each staining, three areas per optic nerve section were documented with a microscope equipped with a CCD camera (Axio Imager M1; Zeiss) as previously described ([Palmhof et al., 2019]). One photo was taken of the proximal part, one of the middle and one of the distal part, right in front of the chiasma.
Cell infiltration in optic nerve sections stained with H&E was evaluated by using a scoring system ranging from 0 to 4 by a masked observer: 0 = no infiltration; 1 = mild cellular infiltration of the optic nerve or optic nerve sheath; 2 = moderate infiltration; 3 = severe infiltration; and 4 = massive infiltration of the optic nerve parenchyma and nodule infiltration ([Shindler et al., 2006]; [Horstmann et al., 2016]; [Renner et al., 2017]). The average score for each optic nerve was used for statistical analysis.
The grade of demyelination was monitored in optic nerve sections stained with LFB. Therefore, staining was scored from 0 to 2 and categorized as follows: 0 = no demyelination; 0.5 = mild demyelination; 1 = moderate demyelination; 1.5 = advanced demyelination; and 2 = severe demyelination up to dissolution of the tissue.

5HT1A = biological target: T1, 5HT1A (Homo sapiens, UniProt P08908); experiment: Off-target screen 5HT1A; type: binding; details: 10 µM; single point, duplicates
T1 construct: purchased Eurofins CEREP SA

Acetylcholinesterase = biological target: T2, Acetylcholinesterase (Homo sapiens, UniProt P22303); experiment: Off-target screen Acetylcholinesterase; type: biochemical; details: 10 µM; single point, duplicates
T2 construct: purchased Eurofins CEREP SA

ADAM 17 = biological target: T3, ADAM 17 (Homo sapiens, UniProt P78536); experiment: Off-target screen ADAM 17; type: biochemical; details: 10 µM; single point, duplicates
T3 construct: purchased Eurofins CEREP SA

Adenosine A3 respetor = biological target: T4, Adenosine A3 respetor (Homo sapiens, UniProt P0DMS8); experiment: Off-target screen Adenosine A3; type: binding; details: 10 µM; single point, duplicates
T4 construct: purchased Eurofins CEREP SA

Androgen receptor = biological target: T5, Androgen receptor (Homo sapiens, UniProt P10275); experiment: Off-target screen Androgen receptor; type: binding; details: 10 µM; single point, duplicates
T5 construct: purchased Eurofins CEREP SA

Cyclooxygenase 2 = biological target: T6, Cyclooxygenase 2 (Homo sapiens, UniProt P35354); experiment: Off-target screen Cyclooxygenase 2; type: biochemical; details: 10 µM; single point, duplicates
T6 construct: purchased Eurofins CEREP SA

HDAC6 = biological target: T7, HDAC6 (Homo sapiens, UniProt Q9UBN7); experiment: Off-target screen HDAC6; type: biochemical; details: 10 µM; single point, duplicates
T7 construct: purchased Eurofins CEREP SA

LPA2 receptor = biological target: T8, LPA2 receptor (Homo sapiens, UniProt Q9HBW0); experiment: Off-target screen LPA2 receptor, agonist mode; type: cell-based; details: 10 µM, single point, duplicates
T8 construct: purchased Eurofins CEREP SA

MMP-9 = biological target: T9, MMP-9 (Homo sapiens, UniProt P14780); experiment: Off-target screen MMP-9; type: biochemical; details: 10 µM; single point, duplicates
T9 construct: purchased Eurofins CEREP SA

Muscarinic receptor M2 = biological target: T10, Muscarinic receptor M2 (Homo sapiens, UniProt P08172); experiment: Off-target screen Muscarinic M2; type: binding; details: 10 µM; single point, duplicates
T10 construct: purchased Eurofins CEREP SA

mu opioid receptor = biological target: T11, mu opioid receptor (Homo sapiens, UniProt P35372); experiment: Off-target screen mu opioid receptor; type: binding; details: 10 µM; single point, duplicates
T11 construct: purchased Eurofins CEREP SA

Sigma = experiment: Off-target screen Sigma; details: 10 µM; single point, duplicates
[1] = test system: Ca2^+ channel (diltiazem site); experiment: Off-target screen Ca2+ channel (diltiazem site); details: 10 µM; single point, duplicates

T8 sequence (Q9HBW0 whole entry): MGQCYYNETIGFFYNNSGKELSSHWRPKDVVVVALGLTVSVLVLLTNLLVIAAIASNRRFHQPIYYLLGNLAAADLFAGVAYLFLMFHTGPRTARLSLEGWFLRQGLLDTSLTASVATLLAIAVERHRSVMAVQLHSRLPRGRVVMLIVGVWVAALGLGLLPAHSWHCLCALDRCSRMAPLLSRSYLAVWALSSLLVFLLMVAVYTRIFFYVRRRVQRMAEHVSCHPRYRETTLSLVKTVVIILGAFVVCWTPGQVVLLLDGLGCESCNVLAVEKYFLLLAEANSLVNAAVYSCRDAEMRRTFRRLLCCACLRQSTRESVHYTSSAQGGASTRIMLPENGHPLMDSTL
T10 sequence (P08172 whole entry): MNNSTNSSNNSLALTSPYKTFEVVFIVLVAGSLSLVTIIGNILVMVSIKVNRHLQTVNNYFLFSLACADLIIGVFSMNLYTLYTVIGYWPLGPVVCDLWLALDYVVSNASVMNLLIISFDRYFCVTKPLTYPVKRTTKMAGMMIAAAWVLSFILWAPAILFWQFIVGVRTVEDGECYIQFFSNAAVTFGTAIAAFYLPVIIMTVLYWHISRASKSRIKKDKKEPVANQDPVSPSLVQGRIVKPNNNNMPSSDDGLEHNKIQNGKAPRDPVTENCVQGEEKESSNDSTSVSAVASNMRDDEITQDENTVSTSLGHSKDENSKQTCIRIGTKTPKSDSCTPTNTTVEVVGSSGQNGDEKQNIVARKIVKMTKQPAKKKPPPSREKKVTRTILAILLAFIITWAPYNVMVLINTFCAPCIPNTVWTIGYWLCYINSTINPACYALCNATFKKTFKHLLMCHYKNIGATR
T6 sequence (P35354 18-604): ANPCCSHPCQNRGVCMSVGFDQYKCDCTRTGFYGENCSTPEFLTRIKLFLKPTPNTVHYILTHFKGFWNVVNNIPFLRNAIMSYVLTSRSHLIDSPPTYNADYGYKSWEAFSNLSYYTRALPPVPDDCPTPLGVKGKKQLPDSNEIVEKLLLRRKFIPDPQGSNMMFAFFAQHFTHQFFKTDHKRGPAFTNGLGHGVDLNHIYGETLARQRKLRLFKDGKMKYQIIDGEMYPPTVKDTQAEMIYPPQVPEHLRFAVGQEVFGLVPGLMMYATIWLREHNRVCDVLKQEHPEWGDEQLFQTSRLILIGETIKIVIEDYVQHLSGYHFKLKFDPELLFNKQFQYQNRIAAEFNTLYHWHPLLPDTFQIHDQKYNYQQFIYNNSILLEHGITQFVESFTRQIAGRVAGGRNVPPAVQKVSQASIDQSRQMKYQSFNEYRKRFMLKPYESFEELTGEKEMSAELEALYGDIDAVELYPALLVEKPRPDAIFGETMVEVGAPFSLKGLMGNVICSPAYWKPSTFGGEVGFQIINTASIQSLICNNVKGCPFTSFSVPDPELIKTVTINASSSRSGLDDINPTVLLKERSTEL
T2 sequence (P22303 32-614): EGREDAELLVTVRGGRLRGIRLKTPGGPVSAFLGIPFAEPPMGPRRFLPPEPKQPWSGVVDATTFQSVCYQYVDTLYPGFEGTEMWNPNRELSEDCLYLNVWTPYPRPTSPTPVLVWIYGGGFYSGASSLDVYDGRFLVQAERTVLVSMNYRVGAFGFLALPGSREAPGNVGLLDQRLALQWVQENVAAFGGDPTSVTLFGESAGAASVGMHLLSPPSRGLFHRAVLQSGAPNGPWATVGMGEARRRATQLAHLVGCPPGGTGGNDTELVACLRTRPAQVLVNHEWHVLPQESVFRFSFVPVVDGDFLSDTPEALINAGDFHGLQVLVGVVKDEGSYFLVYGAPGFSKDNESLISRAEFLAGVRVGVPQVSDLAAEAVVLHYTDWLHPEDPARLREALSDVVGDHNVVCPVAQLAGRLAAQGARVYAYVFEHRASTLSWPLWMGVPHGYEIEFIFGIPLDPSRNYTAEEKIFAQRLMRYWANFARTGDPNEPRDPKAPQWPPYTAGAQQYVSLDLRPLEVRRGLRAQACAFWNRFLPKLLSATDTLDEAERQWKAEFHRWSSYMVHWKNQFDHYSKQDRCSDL
T1 sequence (P08908 whole entry): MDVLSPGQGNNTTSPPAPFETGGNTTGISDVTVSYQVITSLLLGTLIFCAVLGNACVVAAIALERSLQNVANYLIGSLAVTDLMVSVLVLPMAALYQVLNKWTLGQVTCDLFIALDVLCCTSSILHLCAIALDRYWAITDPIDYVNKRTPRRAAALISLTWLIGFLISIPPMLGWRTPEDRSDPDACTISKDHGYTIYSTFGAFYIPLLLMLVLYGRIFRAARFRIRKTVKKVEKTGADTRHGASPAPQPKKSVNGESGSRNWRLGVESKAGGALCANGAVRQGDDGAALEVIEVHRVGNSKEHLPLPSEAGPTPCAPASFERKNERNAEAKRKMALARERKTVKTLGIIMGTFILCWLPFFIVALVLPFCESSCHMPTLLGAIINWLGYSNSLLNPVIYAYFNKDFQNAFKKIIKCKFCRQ
T5 sequence (P10275 whole entry): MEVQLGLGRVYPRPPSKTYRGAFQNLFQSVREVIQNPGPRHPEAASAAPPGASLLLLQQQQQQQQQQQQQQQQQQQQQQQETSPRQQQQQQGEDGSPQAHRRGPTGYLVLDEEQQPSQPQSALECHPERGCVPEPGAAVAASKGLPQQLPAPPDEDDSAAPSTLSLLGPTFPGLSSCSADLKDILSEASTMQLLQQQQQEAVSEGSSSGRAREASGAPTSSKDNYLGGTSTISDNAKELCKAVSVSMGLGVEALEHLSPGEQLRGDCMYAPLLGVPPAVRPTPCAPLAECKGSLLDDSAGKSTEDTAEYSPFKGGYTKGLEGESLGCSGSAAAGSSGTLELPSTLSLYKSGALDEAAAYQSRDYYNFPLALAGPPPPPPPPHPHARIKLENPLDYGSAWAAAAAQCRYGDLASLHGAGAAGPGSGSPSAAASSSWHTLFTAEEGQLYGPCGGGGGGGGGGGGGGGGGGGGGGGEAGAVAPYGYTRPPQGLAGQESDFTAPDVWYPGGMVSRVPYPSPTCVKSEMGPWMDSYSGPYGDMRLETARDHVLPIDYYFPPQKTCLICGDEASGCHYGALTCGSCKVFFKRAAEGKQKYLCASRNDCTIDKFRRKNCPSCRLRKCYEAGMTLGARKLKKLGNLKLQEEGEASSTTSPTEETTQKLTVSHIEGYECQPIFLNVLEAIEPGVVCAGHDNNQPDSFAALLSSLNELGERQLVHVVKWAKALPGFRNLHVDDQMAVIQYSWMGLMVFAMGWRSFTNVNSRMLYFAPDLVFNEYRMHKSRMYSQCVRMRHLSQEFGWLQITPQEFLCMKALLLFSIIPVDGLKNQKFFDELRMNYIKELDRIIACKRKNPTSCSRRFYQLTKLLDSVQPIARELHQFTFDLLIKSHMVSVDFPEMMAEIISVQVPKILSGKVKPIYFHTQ
T7 sequence (Q9UBN7 whole entry): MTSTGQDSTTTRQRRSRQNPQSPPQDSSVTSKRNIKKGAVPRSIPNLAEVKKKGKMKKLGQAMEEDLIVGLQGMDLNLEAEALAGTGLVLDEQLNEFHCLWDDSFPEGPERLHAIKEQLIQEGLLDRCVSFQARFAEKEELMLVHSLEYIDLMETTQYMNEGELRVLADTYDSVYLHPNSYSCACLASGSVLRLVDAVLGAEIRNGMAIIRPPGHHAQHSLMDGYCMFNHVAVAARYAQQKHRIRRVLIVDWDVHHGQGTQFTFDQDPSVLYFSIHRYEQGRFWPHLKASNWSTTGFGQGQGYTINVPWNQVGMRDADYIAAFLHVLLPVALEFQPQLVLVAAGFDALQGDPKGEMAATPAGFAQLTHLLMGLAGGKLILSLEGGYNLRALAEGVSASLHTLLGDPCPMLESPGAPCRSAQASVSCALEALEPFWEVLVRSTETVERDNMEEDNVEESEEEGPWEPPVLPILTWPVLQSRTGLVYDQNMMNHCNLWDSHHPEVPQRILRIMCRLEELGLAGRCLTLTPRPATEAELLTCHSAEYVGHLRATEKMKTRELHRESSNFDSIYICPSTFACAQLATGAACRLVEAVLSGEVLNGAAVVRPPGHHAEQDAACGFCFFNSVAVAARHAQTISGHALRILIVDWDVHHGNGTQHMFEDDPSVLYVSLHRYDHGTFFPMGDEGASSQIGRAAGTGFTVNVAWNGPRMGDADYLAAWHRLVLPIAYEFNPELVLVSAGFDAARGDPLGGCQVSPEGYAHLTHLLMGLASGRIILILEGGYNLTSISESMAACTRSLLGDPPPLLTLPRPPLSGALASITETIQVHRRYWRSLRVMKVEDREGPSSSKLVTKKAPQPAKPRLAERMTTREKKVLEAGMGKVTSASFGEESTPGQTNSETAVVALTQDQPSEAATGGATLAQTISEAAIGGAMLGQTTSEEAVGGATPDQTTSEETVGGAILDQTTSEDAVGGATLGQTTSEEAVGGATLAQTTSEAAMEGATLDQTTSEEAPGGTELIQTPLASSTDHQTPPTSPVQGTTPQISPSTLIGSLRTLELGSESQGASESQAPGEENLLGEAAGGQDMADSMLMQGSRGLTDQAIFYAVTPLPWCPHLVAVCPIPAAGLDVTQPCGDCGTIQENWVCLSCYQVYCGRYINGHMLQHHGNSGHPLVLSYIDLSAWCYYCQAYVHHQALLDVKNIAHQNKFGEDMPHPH
T11 sequence (P35372 whole entry): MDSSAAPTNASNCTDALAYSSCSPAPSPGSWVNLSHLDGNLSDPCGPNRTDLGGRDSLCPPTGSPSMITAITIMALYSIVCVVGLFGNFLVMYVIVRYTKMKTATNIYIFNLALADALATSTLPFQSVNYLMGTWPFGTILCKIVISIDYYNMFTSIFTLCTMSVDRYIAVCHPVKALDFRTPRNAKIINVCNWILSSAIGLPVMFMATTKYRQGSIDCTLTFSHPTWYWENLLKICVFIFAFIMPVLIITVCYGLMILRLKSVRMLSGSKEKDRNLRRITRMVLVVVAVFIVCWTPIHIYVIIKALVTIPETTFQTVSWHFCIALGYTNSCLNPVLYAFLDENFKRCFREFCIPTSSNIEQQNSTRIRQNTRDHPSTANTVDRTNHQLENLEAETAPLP

O=C(OCc1ccc(OC(F)(F)F)cc1)N1C[C@@H]2CN(C(=O)c3ccc4[nH]nnc4c3)C[C@H]2C1 [Compound 13, (3aS,6aS)-5-(1H-Benzotriazole-5-carbonyl)-hexahydro-pyrrolo[3,4-c]pyrrole-2-carboxylic acid 4-trifluoromethoxy-benzyl ester]
solubility (HT-solubility assay): 28 µg/mL (≈ 58.9 µM)
IOP (EAG model rats; 1 week after immunization, ONA 10.44 ± 0.62, control 11.26 ± 0.54): 10.54 ± 0.40 mmHg
IOP (EAG model rats; 1 week before immunization, ONA 10.34 ± 0.67, control 10.36 ± 1.03): 10.91 ± 0.50 mmHg
IOP (EAG model rats; 2 weeks after immunization, ONA 10.74 ± 0.55, control 11.36 ± 0.52): 10.85 ± 0.42 mmHg
IOP (EAG model rats; 3 weeks after immunization, ONA 10.77 ± 0.77, control 11.47 ± 0.62): 10.69 ± 0.60 mmHg
ED1+ and Iba1+ active microglia, optic nerve (EAG model rats; 28 days, ONA 0.27 ± 0.24, control 0.06 ± 0.11): 0.22 ± 0.10 cells/image
Iba1+ microglia, optic nerve (EAG model rats; 28 days, ONA 3.14 ± 0.94, control 1.28 ± 0.15): 2.96 ± 0.92 cells/image
ED1+ and Iba1+ microglia, retina (EAG model rats; 28 days, ONA 7.70 ± 6.27, control 1.52 ± 1.28): 5.08 ± 1.86 cells/mm
GFAP area, retina (EAG model rats; 28 days, ONA 13.55 ± 3.42, control 9.72 ± 0.84): 10.30 ± 2.29 area [%]/section
Iba1+ microglia cell count, retina (EAG model rats; 28 days, ONA 22.06 ± 7.81, control 13.67 ± 3.04): 19.76 ± 2.82 cells/mm
Brn-3a+ RGC number, retina (EAG model rats; 28 days, ONA 29.47 ± 6.20, control 58.11 ± 4.22, p = 0.032 vs ONA): 38.59 ± 4.33 cells/mm
Optic nerve LFB score (EAG model rats; 28 days, score 0-2, ONA 0.58 ± 0.20, control 0.31 ± 0.13): 0.77 ± 0.66
GFAP score, optic nerve (EAG model rats; 28 days, score 0-2, ONA 0.81 ± 0.17, control 0.71 ± 0.26): 1.00 ± 0.29
Optic nerve SMI-32 score (EAG model rats; 28 days, score 0-2, ONA 0.91 ± 0.08, control 0.58 ± 0.14): 0.75 ± 0.19
Optic nerve H&E score (EAG model rats; 28 days, score 0-4, ONA 1.22 ± 0.43, control 0.80 ± 0.51): 1.27 ± 0.86
Serum IgG level (EAG model rats; end of EAG study, ONA 15.78 ± 5.00, control 8.31 ± 5.76): 12.30 ± 2.70 mg/mL
Aqueous humor IgG level (EAG model rats; end of EAG study, ONA 272.24 ± 98.17, control 62.31 ± 19.91, p = 0.025 vs ONA): 167.26 ± 34.50 µg/mL
5HT1A (h) [% inhib] (5HT1A): -20 % inhib
Acetylcholinesterase (h) [% inhib] (Acetylcholinesterase): -23 % inhib
ADAM 17 (h) [% inhib] (ADAM 17): 9 % inhib
Adenosine A3 respetor (h) [% inhib] (Adenosine A3 respetor): 33 % inhib
Androgen receptor (h) [% inhib] (Androgen receptor): -1 % inhib
Cyclooxygenase 2 (h) [% inhib] (Cyclooxygenase 2): 1 % inhib
HDAC6 (h) [% inhib] (HDAC6): -14 % inhib
LPA2 receptor (h), agonist mode [% pos ctrl] (LPA2 receptor): 8 % pos ctrl
MMP-9 (h) [% inhib] (MMP-9): -22 % inhib
Muscarinic receptor M2 (h) [% inhib] (Muscarinic receptor M2): -15 % inhib
mu opioid receptor (h) [% inhib] (mu opioid receptor): 15 % inhib
Sigma (h) [% inhib] (Sigma): 38 % inhib
Ca2^+ channel (diltiazem site) (r) [% inhib] [1]: 9 % inhib
